Reference: patent US10168342B2, “Lipid probes and uses thereof” (THE SCRIPPS RESEARCH INSTITUTE, priority 2015, dated 2019)

Assays:
human NUCB1 [1] = target: T1, human NUCB1 (Homo sapiens, UniProt Q02818); experiment: In vitro gel-based competition of AEA-DA probe labeling of NUCB1; format: binding; details: AEA-DA 5.0 μM, lipids 20×, NUCB1-transfected HEK293T lysates
T1 construct: made in house; host or cells: Escherichia coli BL21(DE3)
T1 sequence (Q02818 27-461): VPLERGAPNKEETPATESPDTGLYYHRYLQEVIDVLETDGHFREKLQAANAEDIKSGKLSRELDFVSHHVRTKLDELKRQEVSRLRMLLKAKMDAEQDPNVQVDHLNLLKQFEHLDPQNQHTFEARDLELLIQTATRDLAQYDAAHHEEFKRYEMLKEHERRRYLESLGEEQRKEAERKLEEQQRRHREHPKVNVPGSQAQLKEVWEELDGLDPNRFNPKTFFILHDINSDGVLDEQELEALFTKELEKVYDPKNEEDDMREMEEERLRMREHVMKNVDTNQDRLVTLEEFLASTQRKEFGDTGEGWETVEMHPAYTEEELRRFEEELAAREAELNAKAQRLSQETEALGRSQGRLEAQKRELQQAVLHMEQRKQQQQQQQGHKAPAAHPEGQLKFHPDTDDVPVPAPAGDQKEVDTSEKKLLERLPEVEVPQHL
Experimental: Human NUCB1 lacking the N-terminal signal sequence (M1-A26) was subcloned into pET45b(+) vector (Novagen) using the following PCR primers for amplification: 5′-CATCAATTGTGTGCCCCTGGAGAGAG-3′ and 5′-AGCAAGCTTTACAGATGTTGGGGCACC-3′. Following transformation of Escherichia coli strain BL21(DE3) with hNucb1ΔSSpET45b(+), a single colony was isolated and grown in Terrific Broth containing carbenicillin (100 mg/L) at 37° C. to an OD600 of 0.8. Protein expression was induced with IPTG (1.0 mM) and the cells were incubated at 20° C. with shaking overnight. After centrifugation, cells pellets were resuspended in cold buffer containing HEPES (0.05M), NaCl (0.03 M), imidazole (5.0 mM), DNase (0.1 mg/mL), MgCl2 (1.0 mM), CaCl2 (1.0 mM) and EDTA-free Complete Protease Inhibitor Cocktail and lysed using a microfluidizer. […] The suspension was applied to a column and the retained resin was washed with HEPES buffer containing 500 mM NaCl until the eluent was clean of DNA and protein (A280/260) and then with HEPES buffer containing 10 mM imidazole (5 mL/1 mL resin). Protein was then slowly eluted with HEPES buffer containing 50 mM imidazole in 1.0 mL fractions and the combined fractions containing hNUCB1 were passed through a Sephadex G-25M column to remove imidazole and concentrated in an Amicon centrifugal filter device (Millipore). These conditions produced hNUCB1 at approximately 10 mg/L of culture; however, several lower molecular weight fragments were also present in this preparation. hNUCB1 was further purified by size exclusion chromatography.
(§1) Cell lysates (1.0 mg/mL), the indicated lipid probe (2.5 or 5 μM) and, for recombinant NUCB1 competition experiments, purified hNUCB1 (250 nM) and CaCl2 (100 μM) were mixed on ice. DMSO or competitors were then added to the proteome mixture (50 μM) in 96-well plates and each sample was incubated for 15 min at 37° C. The samples were then irradiated with UV light and subjected to previously described click chemistry conditions. As before, each reaction was quenched with 4×SDS loading buffer (17 μL), and proteins were resolved using SDS-PAGE (10% acrylamide gel) and analyzed by in-gel fluorescent scanning on a Hitachi FMBIO-II flatbed fluorescence scanner. NUCB1 competition was quantitatively assessed by measuring the fluorescent intensity of the corresponding gel band using ImageJ 1.48v and normalizing this value by a non-competed gel band to control for loading differences.
(§2) Metabolite data are shown as mean±SEM (n=3-5/group). Differences between two groups were determined using Student's t test (unpaired, two-tailed) and significance was denoted for P values<0.05.

human NUCB1 [2] = target: T1, human NUCB1; experiment: FluoPol assay / high throughput screen with Fl-AEA and recombinant NUCB1; format: binding; details: for suppression of the NUCB1-FluoPol signal (blockade of Fl-AEA binding): competitor lipids, recombinant NUCB1
Experimental: FluoPol conditions were optimized by screening various concentrations of Fl-AEA, hNUCB1, CaCl2 and Pluronic F-127 against positive and negative controls. Arachidonic acid (20 μM final) was used as a positive control, and DMSO as a negative. Additionally, protein-free controls were used to normalize for background signal. […] The Z′-factor for these conditions was determined to be 0.54, indicating a high signal to noise assay.
A 10 μL solution of hNUCB1 (1 μM), Fl-AEA (0.5 μM), CaCl2 (20 μM), and Pluronic F-127 (0.01%) was added to a Greiner 384-well plate. Additionally, in some wells protein was omitted to serve as a blank control for background signal. To the protein containing wells 16,000 compounds (50 nL in DMSO, 2 mM) from the Maybridge Hitfinder library were added by a pin-tool robot. Additionally, on each plate to some wells arachidonic acid (20 μM final) or DMSO were added as positive and negative controls to allow normalization between plates. The plates were allowed to incubate for 5 minutes at room temperature, then fluorescence polarization was measured by measuring fluorescence intensity through polarized 595 nm filters. Hits were selected based on maximal probe competition.

NENF = target: T2, NENF (Homo sapiens, UniProt Q9UMX5); experiment: In vitro gel-based competition of AEA-DA probe labeling of NENF; format: binding; details: NENF-transfected HEK293T lysates; for competition of AEA-DA probe labeling of recombinant NENF: competitors 1-100 μM
T2 construct: Full-length cDNAs encoding for the each protein of interest were subcloned into pcDNA3.1 myc-His A; Myc (myc-His of pcDNA3.1 myc-His A); expressed in transfected cells; host or cells: HEK293T (lysates)
Experimental: (§3) Full-length cDNAs encoding for the each protein of interest were subcloned into pcDNA3.1 myc-His A (Invitrogen) or used directly for transfections if available in a eukaryotic expression vector. HEK293T cells were grown to ˜70% confluence under standard growth conditions before adding the appropriate cDNA [control cells (“mock”) received an equal amount of empty pcDNA3.1 myc-His A vector] and FuGENE 6 or X-tremeGENE HP (Roche) transfection reagent according to the manufacturer's instructions. Cells were incubated for 36-48 hours before labeling in situ or harvesting for in vitro experiments.
as §1, with “DMSO or competitors were then added to the proteome mixture (50 μM) in 96-well plates and each sample was incubated for 15 min at 37° C.” left out
as §2

[3] = tested on: NAEs, NATs, AA and 2-AG in Neuro2a cells; experiment: Targeted LC-MS (MRM) analysis of lipids from Neuro2a cells; format: cell-based, mouse; details: Neuro2a cells, 10 μM (PF-7845 1 μM)
Experimental: Discovery metabolite profiling was performed as described by Saghatelian et al., “Assignment of endogenous substrates to enzymes by global metabolite profiling,” Biochemistry 43:14332-14339 (2004) with several modifications. […] The media from the cells was removed and cells were washed with DPBS (2×5.0 mL) before adding freshly prepared media solutions containing vehicle or compound. After incubating for 6 h at 37° C. and subsequent removal of the media, the cells were harvested by scrapping in cold DPBS (3 mL) and pelleted by centrifugation in glass vials. The pellets were washed once with cold DPBS (3 mL) and then cold […] (2:1) (3 mL) was added. After vortexing, the vials were centrifuged (3,000×g, 10 min, 4° C.) and the bottom (organic) layer was transferred to a new glass vial and concentrated under a stream of N2. Samples were stored at −80° C. until the day of analysis when they were reconstituted in Mobile Phase A (100 μL, see below).
Neuro2a cells were treated and lipids extracted as described above. A mixture of internal standards [AEA-d4 (10 pmol), 2-AG-d5 (100 pmol), AA-d8 (100 pmol), PEA-d4 (100 pmol), PDA (1.0 nmol)] was added to the organic phase prior to extracting cells. NAEs, MAGs, AA and NATs were analyzed similarly to previously described methods (Saghatelian et al., 2004). The following MS parameters were used to measure the indicated metabolites by MRM (precursor ion, product ion, collision energy, polarity): NAE 20:4 (AEA) (348, 62, 12, positive), AEA-d4 (352, 66, 12, positive), NAE 16:0 (PEA) (300, 62, 12, positive), PEA-d4 (304, 62, 12, positive), NAE 18:0 (328, 62, 12, positive), NAE 18:1 (326, 62, 12, positive), NAE 18:2 (324, 62, 12, positive), 2-AG (379, 287, 8, positive), 2-AG-d5 (384, 287, 8, positive), AA (303, 259, 4, negative), AA-d8 (311, 267, 4, negative), NAT 20:4 (410, 80, 35, negative), NAT 22:1 (444, 80, 35, negative), NAT 24:1 (472, 80, 35, negative), NAT 24:0 (474, 80, 35, negative), NAT 26:0 (502, 80, 35, negative). The indicated lipids were quantified by measuring the area under the peak relative to an internal standard (AEA-d4 for AEA and NAE 18:2; PEA-d4 for PEA, NAE 18:1 and NAE 18:0; 2-AG-d5 for 2-AG; AA-d8 for AA and 20:4 NAT; PDA for all other NATs).

[4] = tested on: AEA-DA lipid probe targets in Neuro2a cells; details: Neuro2a cells, AEA-DA 5 μM
recombinant TMEM97 = target: T3, recombinant TMEM97 (Homo sapiens, UniProt Q5BJF2); experiment: In situ gel-based competition of arachidonoyl probe labeling of recombinant TMEM97 in HEK293T cells; format: cell-based; details: TMEM97-transfected HEK293T cells, probe 5 μM, competitor 25 μM
T3 construct: Full-length cDNAs encoding for the each protein of interest were subcloned into pcDNA3.1 myc-His A; expressed in transfected cells; host or cells: HEK293T
Experimental: Proteomes were diluted to 1.0 mg/mL (total protein concentration) and 50 μL of each proteome was transferred to separate wells in a 96-well plate.
as §3

T2 sequence (Q9UMX5 32-172, species assumed): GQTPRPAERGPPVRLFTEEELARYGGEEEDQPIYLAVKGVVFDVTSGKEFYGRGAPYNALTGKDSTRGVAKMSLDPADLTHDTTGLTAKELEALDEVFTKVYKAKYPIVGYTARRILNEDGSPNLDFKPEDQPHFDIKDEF
T3 sequence (Q5BJF2 whole entry, species assumed): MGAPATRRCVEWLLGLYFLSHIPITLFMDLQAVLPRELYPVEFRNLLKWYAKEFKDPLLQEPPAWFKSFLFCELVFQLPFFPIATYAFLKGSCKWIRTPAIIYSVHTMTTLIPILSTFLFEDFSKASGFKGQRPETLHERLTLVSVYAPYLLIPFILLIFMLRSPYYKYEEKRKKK

CCCCC/C=C\C/C=C\C/C=C\C/C=C\CCCC(=O)OC(CO)CO [2-AG]
competition of AEA-DA probe labeling of recombinant NUCB1 by lipids (human NUCB1 [1]): blocked
suppression of the NUCB1-FluoPol signal (blockade of Fl-AEA binding) (human NUCB1 [2]): Concentration-dependent suppression

CCCCC/C=C\C/C=C\C/C=C\C/C=C\CCCC(=O)O [AA, Arachidonic acid]
competition of AEA-DA probe labeling of recombinant NENF (NENF): competitively blocked
competition of AEA-DA probe labeling of recombinant NUCB1 by lipids (human NUCB1 [1]): blocked
suppression of the NUCB1-FluoPol signal (blockade of Fl-AEA binding) (human NUCB1 [2]): Concentration-dependent suppression

CCCCC/C=C\C/C=C\C/C=C\C/C=C\CCCC(=O)NCCCCCNC(=O)c1ccc(-c2c3ccc(=[N+](C)C)cc-3oc3cc(N(C)C)ccc23)c(C(=O)[O-])c1 [Fl-AEA, 2-(6-(Dimethylamino)-3-(dimethylmninio)-3H-xanthen-9-yl)-5-((5-((5Z,8Z,11Z,14Z)-icosa-5,8,11,14-tetraenamido)pentyl)carbamoyl)benzoate]
binding to recombinant, purified human NUCB1 (FluoPol signal) (human NUCB1 [2]; Fl-AEA 0.5 μM, NUCB1 1.0 μM): substantial increase in fluorescence polarization (FluoPol) signal

O=C(Nc1cccnn1)N1CCC(=Cc2cccc(Oc3ccc(C(F)(F)F)cn3)c2)CC1 [PF-7845, reference compound]
2-AG levels [3]: greater degree
cellular concentrations of NAEs and NATs ([3]; 6 h): elevated

CCCCC[C@H](O)/C=C/[C@H]1C(=O)C[C@H](O)[C@@H]1C/C=C\CCCC(=O)NCCO [PGD2-EA]
suppression of the NUCB1-FluoPol signal (blockade of Fl-AEA binding) (human NUCB1 [2]): minimal blockade

CCCCC[C@H](O)/C=C/[C@@H]1[C@@H](C/C=C\CCCC(=O)NCCO)[C@@H](O)C[C@H]1O [PGF2α-EA]
suppression of the NUCB1-FluoPol signal (blockade of Fl-AEA binding) (human NUCB1 [2]): minimal blockade

CC(C)CCC[C@@H](C)[C@H]1CC[C@H]2[C@@H]3CC=C4C[C@@H](O)CC[C@]4(C)[C@H]3CC[C@]12C [cholesterol]
suppression of the NUCB1-FluoPol signal (blockade of Fl-AEA binding) (human NUCB1 [2]): minimal blockade

COc1cc2c(cc1OC)CN(CCc1ccc(NC(=O)c3cccc4c(=O)c5cccc(OC)c5[nH]c34)cc1)CC2 [elacridar, reference compound]
concentration blocking lipid probe labeling of FECH, ABCB1B and TMEM97 (as low as) [4]: 0.5 µM
competition of arachidonoyl probe labeling of recombinant TMEM97 (recombinant TMEM97): competition was observed

C=Cc1c(C)c2cc3[n-]c(cc4nc(cc5nc(cc1[n-]2)C(C)=C5CCC(=O)O)C(CCC(=O)O)=C4C)c(C)c3C=C.[Cl-].[Fe+3] [hemin]
IC50 (NENF; read-out: IC50, inhibition of AEA-DA labeling of NENF): 2000 nM
competition of AEA-DA probe labeling of recombinant NENF (NENF): inhibited in a concentration-dependent manner

CCCCC[C@H](O)/C=C/[C@H]1C=CC(=O)[C@@H]1CCCCCCC(=O)O [prostaglandin A1]
suppression of the NUCB1-FluoPol signal (blockade of Fl-AEA binding) (human NUCB1 [2]): minimal blockade

CCCCC[C@H](O)/C=C/C1=C(CCCCCCC(=O)O)C(=O)CC1 [prostaglandin B1]
suppression of the NUCB1-FluoPol signal (blockade of Fl-AEA binding) (human NUCB1 [2]): minimal blockade

CCCCC[C@H](O)/C=C/[C@H]1C(=O)C[C@H](O)[C@@H]1C/C=C\CCCC(=O)O [prostaglandin D2]
suppression of the NUCB1-FluoPol signal (blockade of Fl-AEA binding) (human NUCB1 [2]): minimal blockade

CCCCCCCCCCCCC/C=C/[C@@H](O)[C@@H](N)CO [sphingosine]
suppression of the NUCB1-FluoPol signal (blockade of Fl-AEA binding) (human NUCB1 [2]): minimal blockade
